Consider 7 compounds from paper PMC5540198, “A phase I trial of ganetespib in combination with paclitaxel and trastuzumab in patients with human epidermal growth factor receptor-2 (HER2)-positive metastatic breast cancer” (Breast Cancer Research : BCR, 2017).

The half-life is how long it takes for the measured level to halve. The Tmax is the time from dosing to the highest level. What is called Cmax is the peak of the concentration-time curve.

Read-outs that look alike come from different tables or passages of the source. Marks after values point to notes of the source that are not given here.

Data set [1] concerns HER2-positive and ER-positive breast cancer. Set-up: method as in PMID 18430202. The following applies: intravenous, single agent; among 10 patients; cited from earlier work.
On the set-up of data set [2]: method as in earlier work. As to conditions: PET agent labelled with ^124I; cited from earlier work.
Data set [3] has as its system HER2-positive metastatic breast cancer. Set-up: method as in PMID 22781552. The following applies: plus trastuzumab; cited from earlier work.
The subject of a further data set is metastatic breast cancer. Set-up: method as in PMID 24512858. The following applies: cited from earlier work.
In data set [4] the test system is patients with HER2-positive metastatic breast cancer. The data set is described as follows: Phase I dose-escalation trial: safety, DLT and RP2D of ganetespib with paclitaxel and trastuzumab. Format: in vivo, human. An excerpt: Patients were eligible if they were aged ≥ 18 years, had locally advanced or metastatic HER2-positive disease (defined as FISH ratio ≥ 2.0 or immunohistochemistry (IHC) 3+), ECOG ≤ 2, measurable disease per RECIST 1.1 [23], and adequate end organ function (defined as hemoglobin ≥ 9 g/dl, absolute neutrophil count (ANC) ≥ 1.5 × 10^9/L, platelets ≥ 100 × 10^9/L, bilirubin ≤ 1.5 upper limit of normal (ULN), aspartate aminotransferase (AST) and alanine aminotransferase (ALT) ≤ 2.5 ULN, and serum creatinine ≤ 1.5 ULN). Patients must have received prior trastuzumab and those with estrogen receptor (ER)-positive disease must have received prior endocrine therapy. Any number of prior lines of chemotherapy in the metastatic setting was allowed. Progression on prior treatment with pertuzumab and T-DM1 was required (unless heavily pretreated prior to FDA approval of pertuzumab for first-line treatment of HER2-positive metastatic breast cancer (6/2012) and/or T-DM1 (2/2013)).
Patients received intravenous infusions of trastuzumab and paclitaxel with ganetespib on days 1, 8, and 15 and of trastuzumab and paclitaxel on day 22 of a 28-day cycle. The sequence of administration was trastuzumab (2 mg/kg) followed by paclitaxel (80 mg/m^2) followed by ganetespib. If the patient’s last dose of trastuzumab was >21 days before enrollment, they received a loading dose of trastuzumab at 4 mg/kg over 90 minutes. Ganetespib was then administered intravenously over 60 minutes. The starting dose of ganetespib was 100 mg/m^2, and if there were no DLTs the next cohort would escalate to 150 mg/m^2. A further dose level of 125 mg/m^2 was incorporated in the circumstance of good tolerance of the 100 mg/m^2 but poor tolerance of the 150 mg/m^2 dose levels. There was no dose escalation for paclitaxel and trastuzumab. Therapy was continued until disease progression or unacceptable toxicity.
Patients were examined and assessed for toxicities during and prior to each cycle. Toxicity was graded according to National Cancer Institute (NCI) CTCAE version 4.0 (http://ctep.cancer.gov/protocolDevelopment/electronic_applications/ctc.htm#ctc_40). Patients were evaluated for DLT during cycle 1. DLT was defined as any drug-related grade ≥ 4 nonhematologic adverse events (AEs) or any grade 3 nonhematologic AEs not improving to baseline or grade ≤ 1 by day 14; grade 4 neutropenia lasting ≥ 7 days, or febrile neutropenia, grade 4 thrombocytopenia, or any grade 3 thrombocytopenia that has not recovered to grade ≤ 2 by day 7; or any treatment-related toxicity prompting a dose reduction of ganetespib during the DLT observation period.
Paclitaxel dose reductions were not permitted during the DLT observation period. For dosing beyond cycle 1, paclitaxel was held if patients experienced any other grade 3 or 4 toxicity thought to be related to paclitaxel until symptoms resolved to grade 1/baseline grade. One dose reduction for paclitaxel to 65 mg/m^2 was permitted.

Data set [5] relates to HER2-positive metastatic breast cancer. The data set is described as follows: Phase I trial: anti-tumor activity by RECIST 1.1. Format: in vivo, human. Here is the method:
The sequence of administration was trastuzumab (2 mg/kg) followed by paclitaxel (80 mg/m^2) followed by ganetespib. If the patient’s last dose of trastuzumab was >21 days before enrollment, they received a loading dose of trastuzumab at 4 mg/kg over 90 minutes. Ganetespib was then administered intravenously over 60 minutes. The starting dose of ganetespib was 100 mg/m^2, and if there were no DLTs the next cohort would escalate to 150 mg/m^2. A further dose level of 125 mg/m^2 was incorporated in the circumstance of good tolerance of the 100 mg/m^2 but poor tolerance of the 150 mg/m^2 dose levels. There was no dose escalation for paclitaxel and trastuzumab. Therapy was continued until disease progression or unacceptable toxicity. Patients were evaluated for response initially after two cycles and then every three cycles thereafter using the RECIST criteria. All patients with PR or complete response (CR) were required to have confirmation of response 4 weeks after the criteria for response were first met. The best overall response was defined as the best response recorded from the start of treatment until disease progression or withdrawal from the study. […] The CBR was defined as the proportion of patients whose best overall response, according to RECIST, was CR, PR, or SD lasting for at least 24 weeks.

The nature of data set [6]: Pharmacokinetics of paclitaxel in plasma, cycle 1 day 8 to day 9. Format: in vivo, human. Here is the method: Blood samples for determination of plasma concentrations of paclitaxel were collected on cycle 1, day 8 through cycle 1, day 9 at the following time points after trastuzumab infusion and relative to the start of the paclitaxel infusion: 5 minutes prior to treatment, and 30 and 60 minutes (immediately prior to stopping the paclitaxel infusion pump and starting the ganetespib infusion) after start of paclitaxel infusion. Blood samples were also collected at the following time points after starting ganetespib infusion: 1.5, 2, 4, 7, 21, 24, 27, and 31 hours. Each blood sample (3–5 ml) was collected in sodium heparin tubes and transferred into two polypropylene tubes (1 ml each) and stored at –80 °C. PK were performed in collaboration with Synta Pharmaceuticals, Inc. PK parameters of paclitaxel (such as the area under the curve (AUC) and the maximum serum concentration (Cmax)) were examined descriptively to evaluate the effect of ganetespib on these measures.

The subject of data set [7] is HER2-positive breast cancer. More on the design: method as in PMID 23580070. As to conditions: in combination with trastuzumab; cited from earlier work.
Data set [8] deals with trastuzumab-refractory HER2-positive metastatic breast cancer. Set-up: method as in PMID 18048823, PMID 21558407. The following applies: in combination with trastuzumab; cited from earlier work.

Regarding `CCNC(=O)c1noc(-c2cc(C(C)C)c(O)cc2O)c1-c1ccc(CN2CCOCC2)cc1` [NVP-AUY922], in [1], the “confirmed PR by RECIST, number” value was “one” and the “partial metabolic responses on FDG-PET, number” value was “two”.
Take `CC(C)NCCCn1c(Sc2cc3c(cc2[124I])OCO3)nc2c(N)ncnc21` [^124I-PU-H71]: the half-life in [2] is 96.5 h.
For `CO[C@H]1/C=C\C=C(/C)C(=O)NC2=CC(=O)C(NCCN(C)C)=C(C[C@@H](C)C[C@H](OC)[C@H](O)[C@@H](C)/C=C(\C)[C@@H]1OC(N)=O)C2=O` [alvespimycin], in [3], the “partial response (PR), number of cases” value was “one” and the “stable disease (SD) lasting >6 months, number of cases” value is recorded as “six”.
Regarding `CC(C)c1cc(-c2n[nH]c(=O)n2-c2ccc3c(ccn3C)c2)c(O)cc1O` [ganetespib, 5-(2,4-dihydroxy-5-(1-methylethyl)phenyl)-4-(1-methyl-1H-indol-5-yl)-2,4-dihydro-(1,2,4)triazol-3-one], the ORR in the data set with metastatic breast cancer (single-agent ganetespib) is on record as 15%. In the data set on metastatic breast cancer (single-agent, HER2-positive metastatic breast cancer), the “cases of SD in HER2-positive patients, number” value was “six”. Also, in the data set with metastatic breast cancer (single-agent, HER2-positive, trastuzumab-refractory metastatic breast cancer), the “confirmed PRs, number” value is reported as “two”. Also, the “SDs, total number” value with metastatic breast cancer (single-agent, six HER2-positive and one TNBC) is “seven”. Moreover, the “recommended phase II dose (RP2D)” value in data set [4] (in combination with weekly paclitaxel plus trastuzumab) amounted to 150 mg/m^2. For the same compound, in [4] (nine patients), the “anemia, grade 1/2, drug-related” value is recorded as 44%; the “diarrhea, grade 1/2, drug-related” value was 78%; the “elevated AST or ALT, grade 1/2, drug-related” value is 32%; the “fatigue, grade 1/2, drug-related” value is recorded as 67%. Moreover, in [4] (nine patients), the “nausea, grade 1/2, drug-related” value is listed as 32% and the “rash, grade 1/2, drug-related” value is reported as 32%. For the same compound, the “grade 4 AEs related to ganetespib” value in data set [4] (nine patients, CTCAE 4.0) is listed as “no grade 4 AEs”. Also, in data set [4] (nine patients, cycle 1, 100 and 150 mg/m^2 cohorts), the “patients with dose-limiting toxicities (DLTs)” value is “None”. In data set [4] (of nine patients), the “Grade 3 ALT, increased, N patients” value came out at 1; the “Grade 3 phosphorus, decreased, N patients” value turned out to be 1; the “Grade 3 pruritus, N patients” value is listed as 1. The “overall response rate (ORR), confirmed partial responses” value in data set [5] (ganetespib 100 or 150 mg/m^2 days 1, 8, 15 with weekly paclitaxel 80 mg/m^2 and trastuzumab 2 mg/kg, 2/9 patients, both in 150 mg/m^2 cohort) came out at 22%. The “clinical benefit rate (CBR: CR, PR or SD at least 24 weeks)” value in data set [5] (triplet regimen, 4/9 patients) was 44%. Moreover, in [5] (triplet regimen, nine patients), the median progression-free survival came out at 20 weeks and the “progression-free survival, range” value is 8–55 weeks.
`CC(=O)O[C@H]1C(=O)[C@@]2(C)[C@H]([C@H](OC(=O)c3ccccc3)[C@]3(O)C[C@H](OC(=O)[C@H](O)[C@@H](NC(=O)c4ccccc4)c4ccccc4)C(C)=C1C3(C)C)[C@]1(OC(C)=O)CO[C@@H]1C[C@@H]2O` [paclitaxel]: in data set [6] (human, in vivo, iv), the Tmax was determined as 1.0 ± 0.0 h and the half-life is 13.6 ± 3.3 h. Also, in data set [6] (human, in vivo, iv, Tmax), the Tmax was determined as 0.8 ± 0.3 h. The compound further displayed a Cmax in [6] (human, in vivo, iv, paclitaxel 80 mg/m^2 i.v., ganetespib 100 mg/m^2, n=3) of 3340 ± 1270 ng/mL. In addition, in data set [6] (paclitaxel 80 mg/m^2 i.v., ganetespib 100 mg/m^2, n=3), the T1/2 is 12.9 ± 0.4 h. Moreover, the “Grade 3 blurred vision/grade 3 dry eyes (in same patient), N patients” value in [4] (of nine patients, attributable to paclitaxel) is 1^a.
Consider `C=CCNc1c(O)cc2c(O)c1C[C@@H](C)C[C@H](OC)[C@H](O)[C@@H](C)/C=C(\C)[C@H](OC(N)=O)[C@@H](OC)/C=C\C=C(/C)C(=O)N2` [retaspimycin], for which the “patients with stable disease” value in [7] is on record as 62%.
With `C=CCNC1=C2C[C@@H](C)C[C@H](OC)[C@H](O)[C@@H](C)/C=C(\C)[C@H](OC(N)=O)[C@@H](OC)/C=C\C=C(/C)C(=O)NC(=CC1=O)C2=O` [tanespimycin], in data set [8], the “clinical benefit rate (CBR)” value is given as 59% and the response rate is on record as 22%.
